# From patent publication US20250248979A1, “NOVEL GPX4 INHIBITORS AND USES THEREOF” (THE TRUSTEES OF COLUMBIA UNIVERSITY IN THE CITY OF NEW YORK, priority 2022, published 2025)
# Target: T1, GPX4 (Homo sapiens, UniProt P36969)
# T1 sequence (P36969 1-170 isoform P36969-2): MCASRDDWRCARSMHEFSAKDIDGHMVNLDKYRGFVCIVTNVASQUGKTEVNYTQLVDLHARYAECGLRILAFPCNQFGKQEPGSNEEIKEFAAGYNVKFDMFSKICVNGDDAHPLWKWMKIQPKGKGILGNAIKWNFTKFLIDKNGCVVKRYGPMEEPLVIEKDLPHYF
# Experiment: GPX4 activity assay in cell lysates (NADPH-coupled)
# Type: biochemical
# Set-up: endogenous in cells; host or cells: A-673 cell lysate
# Details: not given
# Experimental: Determination of GPX4 activity in cell lysates was performed as previously described by Roveri et al. 1994 with minor modifications. Briefly, the assay measures the consumption of NADPH, which has a characteristic absorbance at 340 nm, over time as a proxy for GPX4 activity. The rationale for this is that as GPX4 reduces phospholipid hydroperoxides, it oxidizes glutathione, which is then regenerated by glutathione reductase at the expense of NADPH. NADPH is added to the assay in excess such that the reduction of oxidized glutathione is not the rate-limiting reaction in the assay. Thus, the resulting reduction in NADPH absorbance over time reflects GPX4 activity.
# The GPX4-specific substrate phosphatidylcholine hydroperoxide (PCOOH) was prepared by enzymatic hydroperoxidation. Specifically, 0.3 mM phosphatidylcholines (Sigma-Aldrich) were incubated with 0.7 mg soybean lipoxidase type IV (Sigma-Aldrich) in 22 mL of 0.2 M Tris-HCl pH 8.8 with 3 mM sodium deoxycholate at room temperature under continuous stirring for 30 minutes. A Sep-Pak C18 cartridge (Waters-Millipore) was pre-washed with methanol and equilibrated with water, then the substrate mixture was loaded. The column was washed with 10 volumes of water and PCOOH was eluted with 2 mL of methanol.
# To prepare the cell lysate containing native GPX4, A-673 cells were cultured with 20 nM sodium selenite to confluency over two days then harvested and washed with cold PBS. Cells were then resuspended at 10 million cells per 1 mL LCW lysis buffer (0.5% peroxide-free Triton X-100, 0.5% sodium deoxycholate salt, 150 mM NaCl, 20 mM Tris-HCl pH 7.5, 10 mM EDTA, 30 mM sodium pyrophosphate, and complete protease inhibitor cocktail), vortexed for 30 seconds, and incubated on ice for 15 minutes. After lysis, the lysates were centrifuged at 14,000×g and 4° C. for 15 minutes. The supernatants were transferred to new pre-chilled tube and the debris pellet was discarded. The protein concentration in the lysate was determined for normalization using the BCA Protein Assay Kit (Pierce).
# To measure GPX4 activity, 50 μL of cell lysate was combined with 200 μL activity assay buffer (0.1% Triton X-100, 100 mM Tris-HCl pH 8.0, 10 mM sodium azide, 5 mM EDTA, 0.6 IU/mL glutathione reductase, 0.5 mM NADPH and 3 mM GSH) and compounds of interest in a clear 96-well plate and incubated at 37° C. for 45 minutes. Compounds were dissolved in DMSO. All conditions were tested in triplicate. PCOOH substrate was added to the mixture to initiate GPX4 activity just before reading the plate. The absorbance of NADPH at 340 nm was monitored kinetically over time for 25 minutes. Buffer-only controls and controls without substrate containing only the methanol vehicle were performed to assess background and baseline signal. GPX4 activity was calculated as previously reported by Stolwijk et al. 2020 and results were analyzed in GraphPad Prism 9.
row,"GPX4 inhibitory activity, result in words",Compound
1,reduced the inhibitory activity,COc1cc(-c2ccc3c(C(=O)NC(C)(C)COC(=O)CCl)nn(C)c3c2)ccc1Cl [QW-556]
2,slight loss of inhibitory activity,CC(C)(COC(=O)CCl)NC(=O)c1n[nH]c2cc(-c3ccc(N4CCOCC4)c(Cl)c3)ccc12 [QW-583]

# Same assay, conditions: 2.5 μM
row,Compound,GPX4% inhibition at 2.5 μM [%]
1,Cn1nc(C(=O)NC(C)(C)COC(=O)CCl)c2ccc(-c3cccc(C=O)c3)cc21 [QW-599],51.0 ± 4.4
2,COc1ccc(-c2ccc3c(C(=O)NC(C)(C)COC(=O)CBr)nn(C)c3c2)cc1Cl [QW-608],72.2 ± 5.9
3,C=CC(=O)OCC(C)(C)NC(=O)c1nn(C)c2cc(-c3ccc(OC)c(Cl)c3)ccc12 [QW-609],6.7 ± 11.9
4,COc1ccc(-c2ccc3c(C(=O)NC(C)(C)COC(=O)CCl)nn(C)c3c2)cc1Br [QW-611],81.5 ± 1.9
5,COc1ccc(-c2ccc3c(C(=O)NC(C)(C)COC(=O)C#C[Si](C)(C)C)nn(C)c3c2)cc1Cl [QW-612],−5.7 ± 11.7
6,CN1CCN(Cc2ccc(-c3ccc4c(C(=O)NC(C)(C)COC(=O)CCl)nn(C)c4c3)cc2)CC1 [QW-617],80.9 ± 3.4
7,Cn1nc(C(=O)NC(C)(C)COC(=O)CCl)c2ccc(-c3ccc(C(=O)N4CCN(C(=O)OC(C)(C)C)CC4)cc3)cc21 [QW-619],42.6 ± 8.0
8,Cn1nc(C(=O)NC(C)(C)CNC(=O)CCl)c2ccc(-c3ccc(N4CCOCC4)c(Cl)c3)cc21 [QW-629],14.9 ± 16.7
9,CSc1ccc(-c2ccc3c(C(=O)NC(C)(C)CNC(=O)CCl)nn(C)c3c2)cc1Cl [QW-631],14.3 ± 16.5
10,CC=CC(=O)OCC(C)(C)NC(=O)c1nn(C)c2cc(-c3ccc(OC)c(Cl)c3)ccc12 [QW-644],31.4 ± 18.5
11,COc1ccc(-c2ccc3c(C(=O)N4CCC(OC(=O)CCl)C4(C)C)nn(C)c3c2)cc1Cl (centres unmarked) [QW-676],22.9 ± 12.1
12,Cn1nc(C(=O)N2CCC(OC(=O)CCl)C2(C)C)c2ccc(-c3ccc(N4CCOCC4)c(Cl)c3)cc21 (centres unmarked) [QW-691],30.5 ± 7.4

# Next, values leading:
row,GPX4% inhibition at 2.5 μM [%],Compound
1,45.5 ± 4.4,Cn1nc(C(=O)NC(C)(C)COC(=O)CCl)c2ccc(-c3ccc(Br)cc3)cc21 [QW-603]
2,18.1 ± 5.9,Cn1nc(C(=O)NC(C)(C)COC(=O)CCl)c2ccc(-c3ccc(NS(C)(=O)=O)cc3)cc21 [QW-618]
3,63.8 ± 7.8,C=C(C)C(=O)Nc1ccc(-c2ccc3c(C(=O)NC(C)(C)COC(=O)CCl)nn(C)c3c2)cc1 [QW-620]
4,−4.9 ± 21.8,COC(=O)c1ccc(-c2ccc3c(C(=O)NC(C)(C)CNC(=O)CCl)nn(C)c3c2)cc1Cl [QW-632]
5,14.0 ± 15.4,CC(C)Oc1ccc(-c2ccc3c(C(=O)NC(C)(C)CNC(=O)CCl)nn(C)c3c2)cc1Cl [QW-635]
6,50.2 ± 22.0,Cn1nc(C(=O)NC(C)(C)CNC(=O)CCl)c2ccc(-c3ccc(Cl)c(Cl)c3)cc21 [QW-636]
7,52.0 ± 27.0,COC(=O)C=CC(=O)OCC(C)(C)NC(=O)c1nn(C)c2cc(-c3ccc(OC)c(Cl)c3)ccc12 [QW-646]
8,46.9 ± 35.9,CN(C)CCCOc1ccc(-c2ccc3c(C(=O)NC(C)(C)COC(=O)CCl)nn(C)c3c2)cc1 [QW-647]
9,−1.2 ± 15.2,Cn1nc(C(=O)NC(C)(C)COC(=O)CCl)c2ccc(-c3cc4cc(F)ccc4n3C(=O)OC(C)(C)C)cc21 [QW-659]
10,31.0 ± 4.9,CCOc1ccc(-c2ccc3c(-n4cc(C(C)(C)COC(=O)CCl)nn4)nn(C)c3c2)cc1Cl [QW-681]
11,7.9 ± 2.3,Cn1nc(C(=O)NC(COC(=O)CCl)C(F)(F)F)c2ccc(-c3ccc(N4CCOCC4)c(Cl)c3)cc21 (centres unmarked) [QW-687]
12,2.4 ± 17.3,COc1ccc(-c2ccc3c(-c4nnc(C(C)(OC(=O)CCl)C(F)(F)F)o4)nn(C)c3c2)cc1Cl (centres unmarked) [QW-699]
13,−2.2 ± 5.0,Cn1nc(-c2nnc(C(C)(OC(=O)CCl)C(F)(F)F)o2)c2ccc(-c3ccc(N4CCOCC4)c(Cl)c3)cc21 (centres unmarked) [QW-700]
14,23.8 ± 3.7,Cn1nc(C(=O)N2CCC(OC(=O)CCl)C2(C)C)c2ccc(-c3ccc4c(c3)OCO4)cc21 (centres unmarked) [QW-702]
15,2.4 ± 17.3,Cn1nc(C(=O)NC(C)(C)COC(=O)CCl)c2ccc(-c3ccc(OCC(F)(F)F)cc3)cc21 [QW-719]

# Same assay, conditions: 2.5 μM; generation 2
row,GPX4% inhibition at 2.5 μM [%],Compound
1,39.0 ± 26.2,Cn1nc(C(=O)NC(C)(C)CC(=O)N2CCN(C(=O)CCl)CC2)c2ccc(Br)cc21 [QW-638]
2,15.8 ± 24.7,C=C(CN1CCOCC1)C(=O)NCC(C)(C)NC(=O)c1nn(C)c2cc(Br)ccc12 [QW-648]
3,41.9 ± 63.4,Cn1nc(C(=O)N2CCC(OC(=O)CCl)C2(C)C)c2ccc(Br)cc21 (centres unmarked) [QW-673]
4,−37.4 ± 5.2,Cn1nc(C(=O)NC(COC(=O)CCl)C(F)(F)F)c2ccc(Br)cc21 (centres unmarked) [QW-683]
5,10.6 ± 5.8,Cn1nc(-c2nnc(C(C)(OC(=O)CCl)C(F)(F)F)o2)c2ccc(Br)cc21 (centres unmarked) [QW-694]

# Same assay, conditions: 5 μM
row,Compound,GPX4% inhibition at 5 μM [%]
1,Cn1nc(C(=O)NC(C)(C)COC(=O)CCl)c2ccc(-c3ccc(CN4CCOCC4)cc3)cc21 [QW-539],49.6 ± 4.5
2,Cn1nc(C(=O)NC(C)(C)COC(=O)CCl)c2ccc(-c3ccc(N4CCOCC4)cc3)cc21 [QW-547],72.0 ± 0.4
3,C=Cc1ccc(-c2ccc3c(C(=O)NC(C)(C)COC(=O)CCl)nn(C)c3c2)cc1 [QW-554],41.4 ± 4.5
4,C#Cc1ccc(-c2ccc3c(C(=O)NC(C)(C)COC(=O)CCl)nn(C)c3c2)cc1 [QW-555],20.2 ± 0.5
5,COc1cc(-c2ccc3c(C(=O)NC(C)(C)COC(=O)CCl)nn(C)c3c2)ccc1Cl [QW-556],80.2 ± 1.8
6,CSc1ccc(-c2ccc3c(C(=O)NC(C)(C)COC(=O)CCl)nn(C)c3c2)cc1Cl [QW-558],91.2 ± 2.3
7,CN(C)c1ccc(-c2ccc3c(C(=O)NC(C)(C)COC(=O)CCl)nn(C)c3c2)cc1 [QW-568],67.5 ± 3.9
8,COC(=O)c1ccc(-c2ccc3c(C(=O)NC(C)(C)COC(=O)CCl)nn(C)c3c2)cc1Cl [QW-571],82.5 ± 5.2
9,COC(=O)C=Cc1ccc(-c2ccc3c(C(=O)NC(C)(C)COC(=O)CCl)nn(C)c3c2)cc1 [QW-574],72.8 ± 7.7
10,Cn1nc(C(=O)NC(C)(C)COC(=O)CCl)c2ccc(-c3ccc(C=CCCl)cc3)cc21 [QW-575],35.9 ± 1.3
11,Cn1nc(C(=O)NC(C)(C)COC(=O)CCl)c2ccc(-c3cnn(Cc4ccccc4)c3)cc21 [QW-579],66.3 ± 3.4
12,Cn1nc(C(=O)NC(C)(C)COC(=O)CCl)c2cc(-c3ccc(N4CCOCC4)c(Cl)c3)ccc21 [QW-585],23.3 ± 5.2
13,COc1ccc(F)c(-c2ccc3c(C(=O)NC(C)(C)COC(=O)CCl)nn(C)c3c2)c1 [QW-588],59.5 ± 5.7
14,Cn1nc(C(=O)NC(C)(C)COC(=O)CCl)c2ccc(-c3ccc(C=O)cc3)cc21 [QW-591],69.4 ± 3.3

# Further lines, results first:
row,GPX4% inhibition at 5 μM [%],Compound
1,75.6 ± 4.5,Cn1nc(C(=O)NC(C)(C)COC(=O)CCl)c2ccc(-c3cnc4ccccc4c3)cc21 [QW-542]
2,54.7 ± 3.4,COc1ccc(-c2ccc3c(C(=O)NC(C)(C)COC(=O)CCl)nn(C)c3c2)cc1F [QW-567]
3,70.9 ± 6.7,CC(C)(COC(=O)CCl)NC(=O)c1n[nH]c2cc(-c3ccc(N4CCOCC4)c(Cl)c3)ccc12 [QW-583]
4,9.5 ± 5.1,COc1ccc(-c2ccc3c(c2)c(C(=O)NC(C)(C)COC(=O)CCl)nn3C)cc1Cl [QW-584]
5,53.5 ± 6.3,COc1ccc(Cl)cc1-c1ccc2c(C(=O)NC(C)(C)COC(=O)CCl)nn(C)c2c1 [QW-590]
6,76.4 ± 32.7,Cn1nc(C(=O)NC(C)(C)CNC(=O)CCl)c2ccc(-c3ccc(Cl)c(Cl)c3)cc21 [QW-636]
7,30.6 ± 12.2,COC(=O)C=CC(=O)OCC(C)(C)NC(=O)c1nn(C)c2cc(-c3ccc(OC)c(Cl)c3)ccc12 [QW-646]
8,20.9 ± 14.0,CN(C)CCCOc1ccc(-c2ccc3c(C(=O)NC(C)(C)COC(=O)CCl)nn(C)c3c2)cc1 [QW-647]
9,8.5 ± 13.4,Cn1nc(C(=O)NC(C)(C)COC(=O)CCl)c2ccc(-c3cc4cc(F)ccc4n3C(=O)OC(C)(C)C)cc21 [QW-659]

# Same assay, conditions: concentration not given
row,GPX4 inhibition rate,Compound
1,50%,CN(C)c1ccc(-c2ccc3c(C(=O)NC(C)(C)COC(=O)CCl)nn(C)c3c2)cc1 [QW-568]
2,no inhibition on GPX4,Cn1nc(C(=O)NC(C)(C)COC(=O)CCl)c2ccc(-c3ccc(OCC(F)(F)F)cc3)cc21 [QW-719]
